We go through eight compounds from PubChem BioAssay (NCI).

SMILES strings stand for the structures.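 Following 48 hours of exposure in 96-well plates, responses at five concentrations were used to interpolate endpoints linearly. TGI: total growth inhibition.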 A value given as a limit tells only on which side of the number the result lay.

Some test systems named below: OVCAR-8 ovarian; SK-MEL-5 melanoma; TK-10 renal; KM12 colon; SW-620 colon; 786-0 renal; OVCAR-5 ovarian; RXF 393 renal; UACC-257 melanoma; SF-295 CNS; NCI-H23 lung; M14 melanoma; SNB-19 CNS; HCC-2998 colon; HS 578T breast; IGROV1 ovarian; UACC-62 melanoma.
Holding throughout (assay): inhibition of tumour cell growth, NCI panel, 48 h

As to `ON[C@H]1C[C@@H](n2cnc3c(NC4CC4)ncnc32)[C@H](O)[C@@H]1O`, the TGI in the assay with OVCAR-8 ovarian, in the assay on SK-MEL-5 melanoma, in the assay on TK-10 renal, in the assay with KM12 colon, in the assay with SW-620 colon and in the assay on 786-0 renal was greater than 100 µM in each case. For the same compound, the TGI with OVCAR-5 ovarian, with RXF 393 renal, in the assay with UACC-257 melanoma, in the assay with SF-295 CNS, in the assay on NCI-H23 lung and in the assay on M14 melanoma was greater than 100 µM throughout. Also, the TGI with SNB-19 CNS, in the assay on HCC-2998 colon, in the assay on HS 578T breast, with IGROV1 ovarian and in the assay with UACC-62 melanoma was greater than 100 µM throughout.
As to `COc1cc2c(cc1O)C1(Cc3ccc4c(c3C1=O)OCO4)N(C)CC2` (stereo unspecified), the TGI in the assay with OVCAR-8 ovarian, with SK-MEL-5 melanoma, in the assay on TK-10 renal, in the assay with KM12 colon, in the assay on SW-620 colon and in the assay with 786-0 renal was greater than 100 µM each time. Moreover, the TGI in the assay with OVCAR-5 ovarian, in the assay with RXF 393 renal, in the assay on UACC-257 melanoma, with SF-295 CNS, in the assay with NCI-H23 lung and with M14 melanoma was greater than 100 µM throughout. The TGI in the assay with SNB-19 CNS, in the assay on HCC-2998 colon, in the assay with HS 578T breast, with IGROV1 ovarian and with UACC-62 melanoma was greater than 100 µM each time.
Turning to `CC(=O)OCC1OC(O[C@@H]2C[C@H]3C(C)(C)[C@@H](OC(C)=O)CC[C@]3(C)[C@H]3CC[C@]45C[C@]4(CC[C@H]5[C@@H](C)C[C@@H](O)[C@H](O)C(C)(C)F)[C@@]32C)C(O)C(O)C1O` (stereo partly specified), the TGI in the assay on OVCAR-8 ovarian is 6.1 µM; in the assay on SK-MEL-5 melanoma, 3.2 µM; in the assay with TK-10 renal, greater than 100 µM; with KM12 colon, greater than 100 µM; in the assay with SW-620 colon it was 4.85 µM; with 786-0 renal, 3.24 µM. Further, the TGI is 2.81 µM with OVCAR-5 ovarian; greater than 100 µM in the assay with RXF 393 renal; greater than 100 µM with UACC-257 melanoma; greater than 100 µM in the assay on SF-295 CNS; 4.56 µM in the assay with NCI-H23 lung; 3.28 µM in the assay on M14 melanoma. Besides, the TGI is 3.1 µM in the assay on SNB-19 CNS; greater than 100 µM with HCC-2998 colon; 5.85 µM in the assay with HS 578T breast; 4.45 µM with IGROV1 ovarian; greater than 100 µM with UACC-62 melanoma.
For the compound `COC1(OC)C=CC2C1C1C=CC2C1(OC)OC` (stereo unspecified), the TGI with OVCAR-8 ovarian, in the assay on SK-MEL-5 melanoma, in the assay with TK-10 renal, with KM12 colon, with SW-620 colon and with 786-0 renal was greater than 100 µM throughout. Further, the TGI in the assay with OVCAR-5 ovarian, with RXF 393 renal, in the assay on UACC-257 melanoma, in the assay on SF-295 CNS, with NCI-H23 lung and in the assay on M14 melanoma was greater than 100 µM in each case. The TGI in the assay with SNB-19 CNS, in the assay with HCC-2998 colon, in the assay on HS 578T breast, with IGROV1 ovarian and in the assay on UACC-62 melanoma was greater than 100 µM throughout.
Take `C=C1C(=O)OC2C3C(=C)[C@@H](OC(C)=O)CC3C(C)=CC(OC(=O)C(C)(OC(C)=O)C(C)OC(C)=O)[C@@H]12` (stereo partly specified): the TGI in the assay with OVCAR-8 ovarian is greater than 100 µM; in the assay with SK-MEL-5 melanoma, 25.3 µM; in the assay on TK-10 renal it was 27.9 µM; in the assay on KM12 colon it was 33.4 µM; with SW-620 colon it was 21.9 µM; in the assay with 786-0 renal, 33.5 µM. Moreover, the TGI with OVCAR-5 ovarian is 42.6 µM; in the assay on RXF 393 renal, 31.7 µM; in the assay on UACC-257 melanoma, 32.1 µM; with SF-295 CNS, greater than 100 µM; with NCI-H23 lung it was 38.3 µM; in the assay with M14 melanoma, 27.8 µM. In addition, the TGI with SNB-19 CNS is greater than 100 µM; with HCC-2998 colon it was 33.2 µM; in the assay on HS 578T breast it was greater than 100 µM; with IGROV1 ovarian, 37.7 µM; in the assay with UACC-62 melanoma, 27.2 µM.
`COc1cccc(Nc2nc(N)nc(N)c2N)c1`: the TGI is greater than 100 µM in the assay with OVCAR-8 ovarian; 88.2 µM in the assay on SK-MEL-5 melanoma; greater than 100 µM in the assay with TK-10 renal; greater than 100 µM in the assay with KM12 colon; 91.1 µM in the assay with SW-620 colon; greater than 100 µM with 786-0 renal. The TGI with OVCAR-5 ovarian is greater than 100 µM; in the assay with RXF 393 renal it was greater than 100 µM; in the assay on UACC-257 melanoma, greater than 100 µM; with SF-295 CNS it was 60.7 µM; in the assay with NCI-H23 lung it was greater than 100 µM; in the assay with M14 melanoma, greater than 100 µM. Further, the TGI in the assay with SNB-19 CNS, in the assay with HCC-2998 colon, with HS 578T breast, in the assay on IGROV1 ovarian and in the assay with UACC-62 melanoma was greater than 100 µM each time.
`COc1cc2c(cc1OC)CC1c3cc(OC)c(OC)cc3CCN1CC2` (stereo unspecified): the TGI in the assay on OVCAR-8 ovarian, in the assay on SK-MEL-5 melanoma, with TK-10 renal, in the assay with KM12 colon, in the assay on SW-620 colon and in the assay on 786-0 renal was greater than 100 µM in each case. Also, the TGI is greater than 100 µM with OVCAR-5 ovarian; greater than 100 µM with RXF 393 renal; greater than 100 µM in the assay with UACC-257 melanoma; greater than 100 µM in the assay with SF-295 CNS; 68 µM in the assay with NCI-H23 lung; greater than 100 µM in the assay on M14 melanoma. In addition, the TGI in the assay on SNB-19 CNS is 76.2 µM; in the assay with HCC-2998 colon it was greater than 100 µM; with HS 578T breast, greater than 100 µM; in the assay on IGROV1 ovarian, greater than 100 µM; with UACC-62 melanoma it was greater than 100 µM.
With `COc1ccc(N=NC(=Nc2ccc(Cl)cc2)c2ccc(N(CCC#N)CCC#N)cc2)cc1`, the TGI in the assay on OVCAR-8 ovarian, in the assay on SK-MEL-5 melanoma, in the assay with TK-10 renal, in the assay on KM12 colon, with SW-620 colon and in the assay with 786-0 renal was greater than 100 µM in each case. Also, the TGI with OVCAR-5 ovarian is greater than 100 µM; in the assay on RXF 393 renal, greater than 100 µM; in the assay with UACC-257 melanoma it was 64.7 µM; in the assay with SF-295 CNS, greater than 100 µM; with NCI-H23 lung, greater than 100 µM; with M14 melanoma it was greater than 100 µM. The TGI in the assay with SNB-19 CNS was greater than 100 µM; with HCC-2998 colon it was greater than 100 µM; in the assay with HS 578T breast it was greater than 100 µM; with IGROV1 ovarian, greater than 100 µM; in the assay on UACC-62 melanoma, 54.1 µM.
